The values below come from article PMC6237158, “HPLC–UV assay for the evaluation of inhibitors of plasma amine oxidase using crude bovine plasma” (Journal of Enzyme Inhibition and Medicinal Chemistry, 2018).

The target of test [1] is T1, purified bovine PAO (Bos taurus, UniProt Q29437).
T1 construct: bovine PAO purified from bovine plasma; purchased Abnova, Taipei, Taiwan delivered via Biozol, Eching, Germany; host or cells: bovine plasma
T1 sequence (Q29437 17-762): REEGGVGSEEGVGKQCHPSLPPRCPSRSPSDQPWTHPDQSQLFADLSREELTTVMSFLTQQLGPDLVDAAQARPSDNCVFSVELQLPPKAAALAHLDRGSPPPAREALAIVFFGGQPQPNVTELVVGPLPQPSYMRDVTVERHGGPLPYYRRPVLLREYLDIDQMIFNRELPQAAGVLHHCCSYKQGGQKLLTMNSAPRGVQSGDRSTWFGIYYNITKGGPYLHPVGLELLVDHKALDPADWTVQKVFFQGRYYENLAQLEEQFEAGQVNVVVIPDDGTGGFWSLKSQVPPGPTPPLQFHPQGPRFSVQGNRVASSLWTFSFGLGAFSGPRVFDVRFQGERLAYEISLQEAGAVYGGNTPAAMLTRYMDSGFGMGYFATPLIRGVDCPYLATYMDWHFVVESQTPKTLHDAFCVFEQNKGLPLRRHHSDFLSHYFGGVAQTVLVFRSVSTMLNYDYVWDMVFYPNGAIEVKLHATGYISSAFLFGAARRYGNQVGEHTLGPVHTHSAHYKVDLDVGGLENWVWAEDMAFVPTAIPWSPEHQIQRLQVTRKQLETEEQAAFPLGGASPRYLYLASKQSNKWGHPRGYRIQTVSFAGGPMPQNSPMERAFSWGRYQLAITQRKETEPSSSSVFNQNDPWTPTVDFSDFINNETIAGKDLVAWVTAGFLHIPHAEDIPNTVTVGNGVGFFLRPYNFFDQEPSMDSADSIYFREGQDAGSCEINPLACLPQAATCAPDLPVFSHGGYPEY
As to the kind of experiment: Inhibition of purified bovine PAO without pre-incubation (HPLC-UV). Type of test: biochemical. The note with it: substrate 3-(5-phenyl-2H-tetrazol-2-yl)propan-1-amine (1), n = 3. As to the method:
Determination of the IC50-values of the PAO inhibitor 2-(4-phenylphenyl)acetohydrazide (16) with bovine plasma using different substrates. The IC50-values were measured as described previously (without pre-incubation),[33] with the modification that the solution of the isolated PAO in PBS (0.19 mg/mL) (95 µL) was replaced by PBS (89 µL) and bovine plasma (6 µL).
To evaluate the comparability of inhibition data obtained with the purified enzyme and the crude plasma, we measured the inhibition values of the known PAO inhibitor 2-(4-phenylphenyl)acetohydrazide (16) (for formula see Table 3) using the different amine substrates 1–7. In these experiments, the enzyme was added to a solution containing both substrate and inhibitor. Thus, no pre-incubation of enzyme with the inhibitor took place. […] This may be due to the binding of the inhibitor to plasma proteins leading to a somewhat reduced effective concentration. In addition, consistent differences in the apparent inhibitory potency of the inhibitor 16 in dependence of the substrate applied could be registered for both enzyme preparations. The reason for these fluctuating values lies in strongly different binding affinities of the substrates to the enzyme as discussed recently. […]

In another test the target is T2, purified PAO (Bos taurus, UniProt Q29437).
T2 construct: we used the enzyme isolated and purified from bovine plasma; host or cells: bovine plasma
T2 sequence (Q29437 17-762): T1 sequence (Q29437 17-762)
More on the design: method as in PMID 29550344. The note with it: after pre-incubation 15 min, read-out: IC50, purified enzyme, cited from earlier work.

The target of a further test is T3, PAO in bovine plasma (Bos taurus, UniProt Q29437).
T3 construct: crude bovine plasma can be used as enzyme source in this assay instead of the purified enzyme; tissue Coesfelder Fleischhandelsgesellschaft, Bernd Grewe (Coesfeld, Germany); host or cells: heparinised bovine blood plasma
T3 sequence (Q29437 17-762): T1 sequence (Q29437 17-762)
As to the kind of experiment: Inhibitor screening without pre-incubation of bovine plasma with the inhibitor (HPLC-UV). Type of test: biochemical. Particulars: n = 3. As to the method: Determination of the IC50-values of the PAO inhibitor 2-(4-phenylphenyl)acetohydrazide (16) with bovine plasma using different substrates.
General procedure for inhibitor screening without pre-incubation of bovine plasma with the inhibitor. A mixture of a DMSO solution of 4 (10 mM) (2.5 µL), a DMSO solution of the appropriate inhibitor (concentration variable) (2.5 µL) and PBS buffer (pH 7.4) (89 µL) was treated with bovine plasma (6 µL). After incubation at 37 °C for 45 min, the enzyme reaction was terminated by the addition of acetonitrile (100 µL). The sample was cooled in an ice bath for 10 min and centrifuged at 12,000 × g and 10 °C for 5 min. An aliquot of the supernatant (150 µL) was diluted with aqueous TRIS buffer (100 mM, pH 8.5 at 20 °C) (150 µL), allowed to stand at room temperature for 30 min, and analysed by HPLC. The HPLC–UV-system consisted of a Thermo Scientific Dionex UltiMate 3000 system including an autosampler and a variable wavelength detector (ThermoFisher Scientific, Germering, Germany). Separation was achieved on a Luna 3 u C8(2) analytical column (3 mm inside diameter× 150 mm, particle size 3 µm) (Phenomenex, Aschaffenburg, Germany) protected with a Phenomenex Phenyl guard column (3 mm inside diameter ×4 mm). The injection volume was 50 µL. Temperature of the autosampler was set to 10 °C, the temperature of the column oven was 20 °C. HPLC analysis was run isocratically using acetonitrile/aqueous TRIS buffer (50 mM, pH 8.5 at 20 °C) (35:65, v/v) as eluent at a flow rate of 0.4 mL/min. […] Controls with DMSO (2.5 µL) instead of a DMSO solution of the inhibitor (2.5 µL) were prepared in the same manner in parallel (n = 3). Furthermore, a blank incubation, in which the enzyme solution was replaced by the buffer used for dissolving the enzyme, was carried out. The relative inhibition values were determined at different inhibitor concentrations and calculated as the ratio of the areas of the 1,3-oxazolidine 15 peaks formed in presence and absence of the test compounds (corrected by the blank value). […] The experiments using benzylamine (7) as substrate were carried out in the same way with the modifications that aliquots (150 µL) of the supernatants obtained after addition of acetonitrile and centrifugation were diluted with water (150 µL) and acetonitrile/aqueous ammonium acetate solution (10 mM, pH 6) (45:55, v/v) was used as eluent at a detection wavelength of 250 nm.

Test [2] has as its target T1, purified bovine PAO. More on the design: method as in PMID 27129976. The note with it: without pre-incubation, n = 3, cited from earlier work.

SMILES strings stand for the structures. Read-outs that look alike come from different tables or passages of the source.

The IC50 is the concentration that gives 50% inhibition. Regarding `NNC(=O)Cc1ccc(-c2ccccc2)cc1` [Compound 16, 2-(4-phenylphenyl)acetohydrazide], the IC50 is 53 ± 3 µM at purified bovine PAO [1]; 0.29 µM at purified PAO (substrate 4); 0.11 µM on purified PAO (substrate benzylamine); 5.3 ± 0.49 µM at PAO in bovine plasma (substrate 4-(5-phenyl-2H-tetrazol-2-yl)butan-1-amine (2), without pre-incubation); 9.7 ± 0.78 µM against PAO in bovine plasma (substrate 5-(5-phenyl-2H-tetrazol-2-yl)pentan-1-amine (3), without pre-incubation); 16 ± 3.4 µM on PAO in bovine plasma (substrate 8-(5-phenyl-2H-tetrazol-2-yl)octan-1-amine (6), without pre-incubation). The IC50 on PAO in bovine plasma (substrate benzylamine (7), without pre-incubation of enzyme and inhibitor) was 0.29 ± 0.07 µM; against PAO in bovine plasma (substrate hexan-1-amine 4, without pre-incubation of enzyme and inhibitor), 17 ± 0.8 µM; at purified bovine PAO [2] (substrate 4-(5-phenyl-2H-tetrazol-2-yl)butan-1-amine (2)), 2.5 ± 0.3 µM; at purified bovine PAO [2] (substrate 5-(5-phenyl-2H-tetrazol-2-yl)pentan-1-amine (3)), 5.4 ± 0.09 µM; at purified bovine PAO [2] (substrate 6-(5-phenyl-2H-tetrazol-2-yl)hexan-1-amine (4)), 11 ± 1.2 µM; at purified bovine PAO [2] (substrate 8-(5-phenyl-2H-tetrazol-2-yl)octan-1-amine (6)), 11 ± 0.85 µM. Moreover, the IC50 on purified bovine PAO [2] (substrate benzylamine (7)) is 0.12 ± 0.03 µM.
